As usually defined, the Emax is the greatest response seen or fitted, relative to the assay's reference. The term EC50 denotes the concentration that produces a half-maximal response.

The values below come from US11613547B2 (priority 2019, dated 2023).

Entries after “also recorded” stand apart in the source; their conditions may differ.

Holding throughout (type): cell-based
For experiment [1], the target named is T1, hKOR (Homo sapiens, UniProt P41145).
T1 construct: expressed in transfected cells; host or cells: HEK 293T (ATCC CRL-11268), transient
Briefly: cAMP inhibition assay (GloSensor, HEK 293T), hKOR. The conditions noted are these: for Emax: HEK-293T, read-out: Gi Emax hKOR; for Bias factor toward G protein, hKOR: cAMP inhibition vs Tango, against U50,488H as control.

Experiment [2] deals with T1, hKOR. Briefly: Tango β-arrestin recruitment assay, hKOR. In general terms: Activated receptors often draw arrestin, which recruitment assays turn into a signal.
Experiment [3] has as its target T2, hMOR (Homo sapiens, UniProt P35372).
T2 construct: expressed in transfected cells; host or cells: HEK 293T (ATCC CRL-11268), transient
Briefly: Tango β-arrestin recruitment assay, hMOR. The conditions noted are these: Tango.

For experiment [4], the target named is T2, hMOR. Briefly: cell-based. The settings on record: for Emax: HEK-293T, read-out: Gi Emax hMOR; for EC50: read-out: Gi EC50 hMOR.

T2 sequence (P35372 whole entry): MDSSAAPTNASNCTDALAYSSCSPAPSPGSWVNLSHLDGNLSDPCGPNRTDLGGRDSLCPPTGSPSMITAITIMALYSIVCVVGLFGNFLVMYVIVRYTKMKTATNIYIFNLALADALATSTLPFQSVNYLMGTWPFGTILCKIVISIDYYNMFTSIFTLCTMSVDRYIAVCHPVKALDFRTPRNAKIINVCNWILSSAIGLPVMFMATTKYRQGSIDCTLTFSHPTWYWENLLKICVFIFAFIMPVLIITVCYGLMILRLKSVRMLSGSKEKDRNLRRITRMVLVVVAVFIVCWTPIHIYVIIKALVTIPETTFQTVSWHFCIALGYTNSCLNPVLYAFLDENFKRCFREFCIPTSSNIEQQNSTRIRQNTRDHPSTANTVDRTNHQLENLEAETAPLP
T1 sequence (P41145 whole entry): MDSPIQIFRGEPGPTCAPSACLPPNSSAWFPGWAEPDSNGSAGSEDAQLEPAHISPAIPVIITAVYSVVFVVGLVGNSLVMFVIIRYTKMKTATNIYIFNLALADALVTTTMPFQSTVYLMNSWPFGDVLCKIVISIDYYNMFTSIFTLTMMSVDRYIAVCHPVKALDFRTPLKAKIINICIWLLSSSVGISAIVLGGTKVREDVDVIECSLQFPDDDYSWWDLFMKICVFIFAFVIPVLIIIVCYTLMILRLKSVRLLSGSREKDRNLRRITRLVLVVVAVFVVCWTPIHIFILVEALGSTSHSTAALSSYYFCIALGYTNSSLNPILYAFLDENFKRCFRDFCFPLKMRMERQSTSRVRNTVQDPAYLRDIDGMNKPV

For the compound `NCc1ccc(C(=O)N[C@@H]2CC[C@H]3[C@H]4Cc5ccc(O)c6c5[C@@]3(CCN4CC3CC3)[C@H]2O6)cc1` [MP1209, 4-(aminomethyl)-N-((4R,4aR,7R,7aR,12bS)-3-(cyclopropylmethyl)-9-hydroxy-2,3,4,4a,5,6,7,7a-octahydro-1H-4,12-methano[1]benzofuro[3,2-e]isoquinolin-7-yl)benzamide], on hKOR [1], the Emax is 100 ± 1.23% and the “Bias factor toward G protein, hKOR” value stood at 0.6. The “Gi pEC50±SEM hKOR” value at hKOR [1] (cAMP inhibition) is on record as 10.6±0.05. The EC50 on hKOR [1] (cAMP inhibition, read-out: Gi EC50 hKOR) amounted to 0.024 nM. The same compound came in with an Emax at hKOR [2] of 67 ± 3%. At hKOR [2] (Tango, WT-hKOR), the “Arrestin pEC50±SEM hKOR” value came to 9.43±0.19 and the EC50 turned out to be 0.37 nM. The “arrestin recruitment at hMOR” value at hMOR [3] is “null arrestin recruitment; also recorded: no arrestin recruitment was observed”. Besides, on hMOR [4], the “Gi pEC50±SEM hMOR” value came to 9.61±0.04, the Emax was found to be 98.5 ± 0.96% and the 50% effective concentration (EC50) is 0.25 nM.

With `O=C(N[C@@H]1CC[C@H]2[C@H]3Cc4ccc(O)c5c4[C@@]2(CCN3CC2CC2)[C@H]1O5)c1cccc(CO)c1` [MP1210, N-((4R,4aR,7R,7aR,12bS)-3-(cyclopropylmethyl)-9-hydroxy-2,3,4,4a,5,6,7,7a-octahydro-1H-4,12-methano[1]benzofuro[3,2-e]isoquinolin-7-yl)-3-(hydroxymethyl)benzamide], at hKOR [1], the Emax worked out at 101 ± 1.1% and the “Bias factor toward G protein, hKOR” value came to 1.2. Further, the “Gi pEC50±SEM hKOR” value on hKOR [1] (cAMP inhibition) is listed as 10.6±0.05. Further, the Emax at hKOR [2] is 63 ± 3.3%. Besides, the “Arrestin pEC50±SEM hKOR” value at hKOR [2] (Tango, WT-hKOR) was found to be 8.94±0.17. On hMOR [3], the “arrestin recruitment at hMOR” value is “null arrestin recruitment; also recorded: no arrestin recruitment was observed”. On hMOR [4], the “Gi pEC50±SEM hMOR” value was determined as 9.81±0.05, the Emax is 94.6 ± 0.98% and the EC50 came to 0.15 nM.
